Reference: PubChem BioAssay AID1996
In brackets after ≈: the same amount, converted by molar mass.

conditions: buffer; pH 7.4; 200.0 µM

Structure (SMILES) | solubility kinetic [µg/mL]
COc1ccc(C2CC(=O)C(C=NCC(C)C)=C(O)C2)cc1 (stereo not given) | 40.6 (≈ 135 µM)
O=[N+]([O-])c1cccc(-c2noc(-c3ccco3)n2)c1 | 1.7 (≈ 6.61 µM)
O=C(Nc1cccnc1Cl)c1cc(-c2ccccc2O)on1 | 0.9 (≈ 2.85 µM)
CN(Cc1cccs1)C(=O)COc1cccc2c1OC(C)(C)C2 | > 49.7
Cc1ccc(N=C2C(=O)Nc3ccccc32)cc1C | 24 (≈ 95.9 µM)
O=C(c1cc(=O)[nH]c2ccccc12)N1CCN(c2ccccc2)CC1 | > 50
CC1=C(C(=O)O)N2C(=O)C(NC(=O)c3ccccc3Cl)C2SC1 (stereo not given) | > 52.9
O=C(CN1C(=O)NC2(CCCC2)C1=O)Nc1nc(-c2ccccc2)cs1 | 1.7 (≈ 4.59 µM)
CSc1ncccc1C(=O)Nc1cccc(S(=O)(=O)N2CCCCCC2)c1 | 11.2 (≈ 27.6 µM)
Cc1nc2cc(NC(=O)Nc3cccc([N+](=O)[O-])c3)ccc2n1C | 0.6 (≈ 1.84 µM)
Cc1ccc(Cl)c(OCC(=O)Nc2cccnc2)c1 | 15.6 (≈ 56.4 µM)
Cc1cccc(-c2nc(-c3ccncc3)no2)c1 | 3.4 (≈ 14.3 µM)
O=C(O)CCc1ccc(S(=O)(=O)Nc2ccccc2N2CCCCC2)cc1 | > 58.3
CC(C)S(=O)(=O)c1csc(NC(=O)Nc2cc(Cl)ccc2Cl)c1Cl | < 0.5
O=S(=O)(NC1CC2CCC1C2)c1ccc(Br)cc1 (stereo not given) | 13.9 (≈ 42.1 µM)
CCCCOC(=O)c1sc2nc(C)cc(C)c2c1N | 0.6 (≈ 2.16 µM)
COc1ccc(OCC2NCCc3cc(OC)c(OC)cc32)cc1 (stereo not given) | 42 (≈ 128 µM)
CCN(CC)CCCN=C(C)C1=C(O)c2ccccc2C1=O | > 45.1
CN1CN(C)c2ccc([N+](=O)[O-])c3cccc1c23 | 2.1 (≈ 8.63 µM)
COc1ccc(Cl)cc1NC(=O)COC(=O)c1cc(C)oc1C | 4.2 (≈ 12.4 µM)
CN(C)c1ccc(C2Nc3cccc4cccc(c34)N2)cc1 | 6.1 (≈ 21.1 µM)
C(=N\NC1=NCCN1)/c1ccncc1.Cl | > 39.3
Cc1nccc(-c2sc(-c3cccs3)nc2C)n1 | 2.6 (≈ 9.51 µM)
COC(=O)c1ccccc1NC(=O)CN1CCCCCC1 | 31.6 (≈ 109 µM)

Structure (SMILES) | solubility kinetic [µg/mL]
N#Cc1ccc(OCC(=O)NC2=NCCS2)cc1 | > 39.2
Cn1nc(C(F)(F)F)c(-c2ccccc2)c1NC(=O)CCC(=O)O | > 51.2
COc1ccc(NC(=S)N2CCN(c3ccccc3)CC2)c(OC)c1 | 2.6 (≈ 7.27 µM)
COc1ccc(NS(=O)(=O)c2ccc(C)cc2)c([N+](=O)[O-])c1 | 44.1 (≈ 137 µM)
CCOC(=O)N1CCC(NS(=O)(=O)c2ccc(C)cc2)CC1 | > 49
COc1cccc(-n2c(-c3ccccc3)c[nH]c2=S)c1 | 7.8 (≈ 27.6 µM)
Cc1csc(NC(=O)COc2ccc3c(c2)CCC3)n1 | 6.9 (≈ 23.9 µM)
CC(C)Oc1cccc(OCCN2C(=O)c3ccccc3C2=O)c1 | 13.8 (≈ 42.4 µM)
CCOC(=O)C1(Cc2ccccc2C)CCCN(C(=O)COC)C1 (stereo not given) | 35.6 (≈ 107 µM)
COc1ccc(-c2noc(CN(C)C(=O)c3ccoc3C)n2)cc1 | 40.6 (≈ 124 µM)
CCCS(=O)(=O)C/C(N)=N/OC(=O)c1ccc(Cl)cc1 | 34.3 (≈ 108 µM)
C=CCn1c(SCC(=O)N(C)CC(=O)Nc2ccc(C)cc2)nnc1-c1ccncc1 | > 65.5
Cc1cc(NC(=O)c2cc([N+](=O)[O-])cc([N+](=O)[O-])c2C)no1 | 38.9 (≈ 127 µM)
Cl.Fc1ccc(Nc2ncnc3ccccc23)cc1 | 36.8
CC(C)(C)c1csc(NC(=O)c2c(F)c(F)c(F)c(F)c2F)n1 | 21.3 (≈ 60.8 µM)
O=C(Nc1cccnc1)NC1CCCCC1 | > 32.9
COc1ccccc1CN(C)C(=O)c1cc(C)nc2ccccc12 | > 48.1
CCC(=O)c1c(NC(C)C)cc(C)oc1=O | > 33.5
Cc1ccc(NC2=CC(=O)CC(C)(C)C2)cc1Cl | 16.2 (≈ 61.4 µM)
CCCCNC(=O)NCCN1CCOCC1 | 31.9 (≈ 139 µM)
N#Cc1ccc(NC(=O)c2cc(-c3cccs3)on2)cc1 | < 0.2
O=C(NCc1ccccc1)c1ccc(Cl)cc1 | 3.8 (≈ 15.5 µM)
CC(=C1C(=O)c2ccccc2C1=O)N1CCN(c2ccc(F)cc2)CC1 | > 52.6
CCOc1ccc(-c2nc(CCl)cs2)cc1.Cl | 8.5

Structure (SMILES) | solubility kinetic [µg/mL]
COCCNC(=O)c1cc2cc(Cl)cc(Cl)c2oc1=O | 9.2 (≈ 29.1 µM)
O=C(O)COCC(=O)NC1CCN(Cc2ccccc2)CC1 | > 46
CSc1nc(N)nc(C(C)C)n1 | > 27.6
C=CCN(CC=C)S(=O)(=O)c1ccc(NC(=S)NC(=O)C2CC2)cc1 | 7.8 (≈ 20.6 µM)
COc1cccc(-c2cc(C(=O)NCC3CCCO3)c3cc(Br)cc(C)c3n2)c1 (stereo not given) | < 0.5
COc1ccc(NC(=O)CN2CC(C)OC(C)C2)cc1Cl (stereo not given) | 43 (≈ 137 µM)
COc1ccc(Cl)cc1S(=O)(=O)n1ccnc1 | > 40.9
Cc1ccc(-c2nc(C=Nc3cccc(C)c3)c(O)o2)cc1 | 0.7 (≈ 2.39 µM)
CCOC(=O)C1C(CC)NC(=S)NC1(C)O (stereo not given) | 35 (≈ 142 µM)
COc1cc2nc(-c3ccccc3C)oc(=O)c2cc1OC | < 0.6
CNC(=S)N(CCc1c(C)[nH]c2ccc(F)cc12)Cc1ccco1 | 3 (≈ 8.68 µM)
CN1CCN(Cc2cn(C)c3ccccc23)CC1CCO (stereo not given) | 32.3 (≈ 112 µM)
Cc1c(NC(=O)C(C)Oc2cccc(F)c2)c(=O)n(-c2ccccc2)n1C (stereo not given) | > 55.4
CCOC(=O)Cc1csc(CC(N)=O)[nH+]1.[Cl-] | > 39.7
O=C(NCCc1ccccn1)c1cncc(Br)c1 | > 45.9
O=S(=O)(c1ccccc1)N(Cc1ccccn1)Cc1ccccn1 | > 50.9
COc1ccc(/C=C/C2=Nc3ccccc3NC(C)(C)C2)cc1OC | 43 (≈ 128 µM)
CCOc1cccc(N2C(=O)/C(=C/c3ccco3)C(=O)NC2=S)c1 | 12.3 (≈ 35.9 µM)
COc1cccc(OC)c1C(=O)Nc1ccc2nc(C)c(C)nc2c1 | 4.5 (≈ 13.3 µM)
CCn1c(C)nc([N+](=O)[O-])c1C(=O)O | > 29.9
CCCCC(CC)CNC(=O)C(=O)C1C(=O)Nc2ccccc21 (stereo not given) | 26.1 (≈ 82.5 µM)
CCc1ccccc1NC(=O)NCc1ccc2c(c1)OCO2 | 0.7 (≈ 2.35 µM)
COc1ccc(NC(=O)CN(C)C(=O)CC2CCCCC2)cc1 | > 47.8
COc1ccc(CNC(=O)COC(=O)[C@@H]2CCCN2C(=O)c2cccs2)cc1 | > 60.4

Structure (SMILES) | solubility kinetic [µg/mL]
COc1ccccc1CNC(=S)NCc1ccc(Cl)cc1 | 11.8 (≈ 36.8 µM)
NC(=O)c1cc(-c2ccccc2)nc2ccc(Br)cc12 | 1.8 (≈ 5.5 µM)
O=C1N=c2ccccc2=C1c1sc(=O)[nH]c1O | > 36.9
CC(C)CCNC(=O)c1cc2c(=O)n3ccccc3nc2s1 | 4.6 (≈ 14.6 µM)
Cc1ccc(C(=O)OCC(=O)NC2CCCc3ccccc32)o1 (stereo not given) | 13.1 (≈ 41.8 µM)
C=CCn1c(NCc2ccc(OC)cc2)nc2ccccc21 | 33.7 (≈ 115 µM)
C=CCn1c(CCC)nc2ccccc21 | > 30
O=[N+]([O-])c1cccc(-c2noc(COc3ccccc3)n2)c1 | 0.9 (≈ 3.03 µM)
CC(=O)c1c(C)[nH]c(C(=O)NNC(=O)c2ccc(C)cc2)c1C | > 47
CCOc1ccc(/C=C(\C#N)C(=O)Nc2ccccn2)cc1 | 2.7 (≈ 9.2 µM)
COc1ccccc1NC(=O)C(C)N(C)CC(=O)Nc1cccc2ccccc12.Cl (stereo not given) | > 64.2
Cc1cc(S(=O)(=O)Nc2noc3ccccc23)ccc1F | 41.2 (≈ 135 µM)
CC1(C)CC(NC(=O)Cc2ccccc2)CC(C)(C)N1.Cl | > 46.6
Cc1cccc(SCC(=O)Nc2ccc3c(c2)OCCO3)c1 | 36.4 (≈ 115 µM)
Cc1cccc(N2CCN(C(=O)c3ccc(NC(=O)CC4SC(N5CCCC5)=NC4=O)cc3)CC2)c1C (stereo not given) | 30.3 (≈ 58.3 µM)
O=C(COC(=O)COc1ccc(Br)cc1)NCC1CCCO1 (stereo not given) | > 55.8
CC(C)NC(=O)c1cc(-c2ccc3c(c2)OCO3)on1 | 17.9 (≈ 65.3 µM)
Cc1c2c(n3c(nc4ccccc43)c1C#N)N(CCN(C)C)CC2 | > 47.9
O=C1NCCCCC1NS(=O)(=O)c1cccc2ccccc12 (stereo not given) | > 47.8
Nc1cc(C(F)(F)F)cc([N+](=O)[O-])c1N | > 33.2
O=C(Nc1cc2c3c(c1)CC(=O)N3CCC2)c1c(F)cccc1F | 9.6 (≈ 29.2 µM)
O=C(CS(=O)c1ccc(Br)cc1)N1CCOCC1 (stereo not given) | 49.4 (≈ 149 µM)
COCCCn1c(=S)[nH]c(C)c(C)c1=O | > 34.2
CC(C)N(Cc1ccccc1)S(=O)(=O)c1ccc(F)cc1 | 12 (≈ 39 µM)

Structure (SMILES) | solubility kinetic [µg/mL]
Cc1cccc(-c2cc(C(=O)Nc3ccncc3)c3ccccc3n2)c1 | 0.8 (≈ 2.36 µM)
CCc1ccc(C(C)NC(=O)C2CCCO2)cc1 (stereo not given) | 34.9 (≈ 141 µM)
CCOc1ccc(S(=O)(=O)Nc2nccs2)cc1 | > 42.7
Cc1ccc(C(=O)Nc2ccncc2)cc1[N+](=O)[O-] | > 38.6
O=C(/C=C/c1ccccc1[N+](=O)[O-])N1CCOCC1 | > 39.3
CC(=O)Oc1ccc2c(=O)oc(-c3ccccc3)nc2c1 | 3.1 (≈ 11 µM)
CC12CCC(=O)N1C(C(=O)Nc1ccc(F)cc1)CS2 (stereo not given) | > 44.2
CC(C)(Oc1ccc(Cl)cc1)C(=O)O/N=C(\N)c1ccncc1 | 34.3 (≈ 103 µM)
Nc1cc(Cl)ccc1C(=O)OCC(=O)N1CCCCCC1 | 5.4 (≈ 17.4 µM)
O=C(Nc1ccccc1C(=O)NCCCN1CCOCC1)c1ccc(F)cc1F | 59.6 (≈ 148 µM)
CCNC(=O)CN1C(=O)NC2(CCOc3ccccc32)C1=O (stereo not given) | > 45.5
Cc1ccc(NC(=S)N(CCN(C)C)C(C)c2cccnc2)cc1 (stereo not given) | > 51.4
O=C(c1ccc2ccccc2n1)N1CCN(S(=O)(=O)c2ccccc2)CC1 | > 57.2
COc1cc(C(=O)Nc2ccncc2)c([N+](=O)[O-])cc1OC | > 45.5
COC(=O)c1ccc(C)c(NC(=O)CCCN2C(=O)CN(C)C2=O)c1 | > 52.1
O=C(NCc1ccncc1)c1cc(F)c(F)cc1Cl | > 42.4
C=CCNC(=S)N/N=C(\C)c1cccc(NC(C)=O)c1 | > 43.6
O=C(CC1CCCC1)N1CCN(S(=O)(=O)c2ccccc2)CC1 | > 50.5
O=C(CN1C(=O)C2(OCCO2)c2cc(Br)ccc21)NO | 46.7 (≈ 136 µM)
C=CCn1c(O)c(C=Nc2ccc(F)cc2)c(=O)[nH]c1=O | 19.3 (≈ 66.7 µM)
O=C(CNC(=O)c1cccs1)OCc1ccc(Cl)cc1 | 41 (≈ 132 µM)
COc1ccccc1-n1ccnc1SCC(=O)NCc1ccco1 | 48.4 (≈ 141 µM)
COc1ccccc1NC(=O)COC(=O)C12CC3CC(CC(Br)(C3)C1)C2 | 5.5 (≈ 13 µM)
N#Cc1ccc(OCC(=O)Nc2ccncc2)cc1 | 36 (≈ 142 µM)
